Test results taken from article PMC11077991, “The small molecule CBR-5884 inhibits the Candida albicans phosphatidylserine synthase” (mBio, 2024).
Values joined by “and” are separate entries in the source; they are usually repeats but may differ in a detail not shown here. Identical values can stand only once. Like-named read-outs stand apart in the source and are kept apart here.

Key:
[1] = tested on: wild-type C. albicans strain SC5314; assay: plate assays, CFU counting and growth curves in minimal media; format: cell-based, Candida albicans; conditions: for fungistatic or fungicidal effect (CFUs vs pre-incubation): 30 µM ebselen, 430 µM LOC14, 170 µM CBR-5884; for fungistatic or fungicidal effect (CFUs vs pre-incubation) / rescue of CFUs by 1 mM ethanolamine: 24 h; for rescue of CFUs by 1 mM ethanolamine: optimized drug concentrations (CBR-5884 ≥170 µM), minimal medium
Protocol: The antifungal effects of ebselen, LOC14 ,and CBR-5884 on live cells were further evaluated by plate assays and growth curves. First, we tried to determine if the inhibitory effects of these compounds were fungistatic or fungicidal. It should be highlighted that in contrast to the MIC assays, the plate assays and growth curve analyses necessitated a greater initial inoculum (OD600 of 0.05 as opposed to 0.00004) for detection. Additionally, a reduced incubation temperature of 30°C instead of 37°C was required to inhibit the hyphal formation, which, in turn, required the adjustment of compound concentrations used. For this, wild-type C. albicans strain SC5314 was grown with varying concentrations of ebselen, LOC14, and CBR-5884 in minimal media at 30°C for 24 h, along with a cho1ΔΔ strain as a control. […] To further determine the optimized inhibitory concentrations and whether the inhibition is fungistatic or fungicidal, wild-type C. abicans SC5314 was then incubated with ebselen, LOC14, and CBR-5884 in a dosage series with 10 µM increments within the inhibition range determined above, and colony forming units (CFUs) were counted after 24 h incubation.
Plate assays and growth curves were conducted in minimal media or minimal media supplemented with 1 mM ethanolamine (ETA). Wild-type SC5314 and cho1ΔΔ strains were grown in YPD overnight and washed three times with H2O before inoculation. The starting OD600 is 0.05 for both plate assays and growth curves. For plate assays, both wild-type and cho1ΔΔ strains were grown in flat-bottom 96-well plates at a final volume of 200 µL, in the presence of different compounds or DMSO as indicated at 30°C. The final DMSO concentration was maintained at 2.5% across all treatments. A Leica inverted microscope was then used to visualize growth after 24 h incubations. In the meantime, cells grown in different compounds were subjected to live cell counting. Cell cultures from flat-bottom 96-well plates after 24 h incubation were diluted 100–10,000 times before plating on the minimal media, and the total colony-forming unit (CFU) was kept within 200 for each plate. A total of six biological replicates were done in each condition.
The growth curves with LOC14 and CBR-5884 treatments were measured from 2 to 30 h with OD600 measurements every 2 h. A final concentration of 170 µM CBR-5884, 430 µM LOC14, and 5 mM serine was added into each group as indicated. To test the stability of CBR-5884, minimal medium supplemented with 170 µM CBR-5884 or equivalent DMSO was agitated for 12 h before the introduction of wildtype C. albicans SC5314 strain, and growth curves were recorded from 0 to 14 h with OD600 measurement every 2 h. To check the resistance of C. albicans in CBR-5884, SC5314 strain was grown in 170 µM CBR-5884 for 12 and 24 h before being diluted in fresh minimal medium supplemented with fresh 170 µM CBR-5884 or equivalent DMSO. The growth curves were recorded from 0 to 14 h with OD600 measurement every 2 h. The final DMSO concentration was maintained at 1.7% across all treatments.

[2] = target: purified C. albicans Cho1 (phosphatidylserine synthase) (Candida albicans, UniProt A0A1D8PF32); assay: malachite-green-based nucleotidase-coupled assay, dose-response; format: biochemical; conditions: top 200 µM, 3 h at 30°C, three replicates
Protocol: A malachite-green-based nucleotidase-coupled assay was used to measure the PS synthesis activity of Cho1 (Fig. 1B). Cho1 catalyzes the production of PS and cytidylmonophosphate (CMP) from CDP-DAG and serine, where CMP can then be recognized and cleaved by the nucleotidase CD73 to release inorganic phosphate, which is subsequently detected by malachite green. To test whether this malachite-green-based assay can reflect Cho1 activity, a time-course test was performed with a fixed amount of purified Cho1 in the presence of substrates (Fig. 1C).
The bioactives library was purchased from Selleck in 2014, and the remaining libraries (anti-infectives and mechanism of action libraries) were assembled from compounds available at the Chemical Biology and Therapeutics Department at St. Jude Children’s Research Hospital. The anti-infectives library contains a curated list of antimicrobials and antiviral agents ([95]). The bioactive library has a compilation of compounds acquired from commercial sources and external academic collaborators. The mechanism of action set is a dynamic set of well-annotated compounds with comprehensive coverage of human targets and mechanisms of action ([96]). All compounds were dissolved in DMSO and 100 nL was transferred to a 384-well clear bottom plate (ThermoFisher Scientific, cat# 265203) using a Beckman Echo 650 acoustic liquid handler. Equal volumes of either the selective CD73 nucleotidase inhibitor AB680 at a final concentration of 1 µM (MedChemExpress, cat# HY-125286) or DMSO were used as positive and negative controls, respectively. A total of 30–35 ng of purified Cho1 protein was used in each reaction in 50 mM Tris-HCl (pH 8.0) for primary screening, combined with 100 µM CDP-DAG (Avanti, cat# 870510), 5 mM serine, 0.4 ng CD73 nucleotidase (R&D systems, cat# EA002), 1 mM MnCl2, 0.1% APX-100, and 0.1% digitonin, in a total volume of 10 µL. Counter screen reactions were set up by replacing only the purified Cho1 with 150 µM CMP, with all other components remaining constant. The 10 µL primary and counter screening reactions were delivered to each well of 384-well assay plates containing pre-aliquoted compounds from the library using a Multidrop Combi (ThermoFisher Scientific). […] After media transfer, assay plates were incubated for 3 h at 30°C. Plates were then removed and 32 µL of malachite green mixture [6 µL malachite A (2%, wt/vol, ammonium molybdate and 20%, vol/vol, sulfuric acid in H2O) +20 µL H2O + 6 µL malachite B (0.1%, wt/vol, malachite green oxalate and 0.5%, wt/vol, polyvinyl alcohol in H2O)] were added to each well via a MultiDrop Combi and incubated for an additional 10 min at room temperature. After incubation, plates were briefly centrifuged at 500 × g and absorbance at 620 nm was then measured using a Cytation7 plate reader (Biotek, Winooski, VT). Raw absorbance values of the compounds were normalized to DMSO (0% inhibition) and AB680 (100% inhibition) from both primary and counter screens, and % Δinhibition was calculated by […]. Z-factors for each plate were calculated using the in-house program RISE (Robust Investigation of Screening Experiments). All non-PAINs compounds that had >80% Δinhibition progressed to dose-response testing (82 total compounds). Dose-response experiments were performed in triplicate as described above using a 10-point, threefold serial dilution with the top concentration for each compound tested being 200 µM (range: 0.010161–200 μM). The absorbance at 620 nm was then measured using a PHERAstar FS multilabel reader (BMG, Cary, NC). Raw values were once again normalized to DMSO (0% inhibition) and AB680 (100% inhibition) and Z-factors for each plate were calculated using RISE. […]

[3] = Best-fit IC50, inhibition of Cho1, 10-point dose-response

Chain of purified C. albicans Cho1 (phosphatidylserine synthase) (A0A1D8PF32 entry or part of it): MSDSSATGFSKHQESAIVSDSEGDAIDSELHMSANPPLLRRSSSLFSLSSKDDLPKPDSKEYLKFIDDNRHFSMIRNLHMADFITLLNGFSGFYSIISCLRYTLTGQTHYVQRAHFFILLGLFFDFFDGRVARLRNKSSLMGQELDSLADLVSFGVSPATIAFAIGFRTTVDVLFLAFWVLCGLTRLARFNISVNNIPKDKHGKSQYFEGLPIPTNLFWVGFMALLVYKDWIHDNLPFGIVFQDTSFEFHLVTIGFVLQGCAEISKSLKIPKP

| Compound | fungistatic or fungicidal effect (CFUs vs pre-incubation) [1] | growth curve in presence or absence of ethanolamine ([1]; 430 µM LOC14, 0-30 h) | rescue of CFUs by 1 mM ethanolamine [1] | IC50 ([2]; 10-point dose-response, read-out: Best-fit IC50, inhibition of Cho1) [µM] | effect of ethanolamine on growth rate and lag time ([1]; 170 µM CBR-5884, 1 mM ethanolamine) | effect of 5 mM serine on growth inhibition ([1]; 170 µM CBR-5884, growth curve 0-30 h) | duration of growth delay ([1]; 170 µM CBR-5884, minimal medium, 30°C) [h] | IC50 [2, 3] | CFU/μL after 24 h incubation with ethanolamine ([1]; 30 µM ebselen + 1 mM ETA) [CFU/μL] |
| --- | --- | --- | --- | --- | --- | --- | --- | --- | --- |
| O=C(C1CC1)N1CCN(Cn2sc3ccccc3c2=O)CC1 [LOC14] | fungistatic effect | no cells grew | did not rescue | ~75.5 |  |  |  |  |  |
| CCOC(=O)c1sc(NC(=O)c2ccco2)c(SC#N)c1C [CBR-5884] | fungistatic effect |  | significantly higher CFUs |  | significantly increased the growth rate and decreased the lag time | serine did not help the cells recover | 12 | ≤ 20 µM and ~8.44 µM |  |
| O=c1c2ccccc2[se]n1-c1ccccc1 [Ebselen] | fungicidal effect |  | did not rescue |  |  |  |  | ≤ 20 µM and ~11.1 µM and 11.1 µM | 0 |
